ChEMBL document CHEMBL5244213, “Current advances in drug discovery for Chagas disease” (Eur J Med Chem, 2018)
Each block holds one compound with its values, some of them ahead of it.

How the values were obtained:
Trypanosoma cruzi [1] = experiment: Antitrypanosomal activity against Trypanosoma cruzi Y intracellular amastigotes assessed as inhibition of intracellular amastigotes viability at 10 uM measured after 72 hrs relative to control; type: functional
Trypanosoma cruzi [2] = experiment: Antitrypanosomal activity against Trypanosoma cruzi […] assessed as inhibition of […] viability; type: functional, organism-based
Trypanosoma cruzi [3] = experiment: Antitrypanosomal activity against Trypanosoma cruzi Y […] transfected in African green monkey Vero cells assessed as inhibition of […] viability measured after 48 hrs by DAPI staining based fluorescence microscopic assay; type: functional, organism-based
Trypanosoma cruzi [4] = experiment: Antitrypanosomal activity against Trypanosoma cruzi Y intracellular amastigote transfected in monkey LLC-MK2 cells assessed as inhibition of intracellular amastigote viability measured after 24 hrs by Neubauer chamber based analysis; type: functional, organism-based; settings: LLC-MK2, 24 h
Trypanosoma cruzi [5] = experiment: Antitrypanosomal activity against Trypanosoma cruzi Y […] transfected in monkey LLC-MK2 cells assessed as inhibition of […] viability measured after 24 hrs by Neubauer chamber based analysis; type: functional, organism-based; settings: LLC-MK2, 24 h
[6] = Selectivity index, ratio of IC50 for cytotoxicity against monkey LLC-MK2 cells to IC50 for antitrypanosomal activity against Trypanosoma cruzi Y […] transfected in monkey LLC-MK2 cells; type: toxicity, cell-based; settings: read-out: Ratio IC50
[7] = Selectivity index, ratio of IC50 for cytotoxicity against monkey LLC-MK2 cells to IC50 for antitrypanosomal activity against Trypanosoma cruzi Y intracellular amastigote transfected in monkey LLC-MK2 cells; type: toxicity, cell-based; settings: read-out: Ratio IC50
[8] = Selectivity index, ratio of IC50 for cytotoxicity against mouse J774.1 cells to IC50 for antitrypanosomal activity against Trypanosoma cruzi Tulahuen 2 […]; type: toxicity, cell-based; settings: read-out: Ratio IC50
Trypanosoma cruzi [9] = experiment: Antitrypanosomal activity against Trypanosoma cruzi Tulahuen 2 intracellular epimastigotes assessed as viability of […] measured after 5 days by absorbance based analysis; type: functional, organism-based; settings: Tulahuen 2, 120 h
[10] = Selectivity index, ratio of IC50 for cytotoxicity against African green monkey Vero cells to IC50 for antitrypanosomal activity against Trypanosoma cruzi X-10 intracellular amastigotes transfected in African green monkey Vero cells; type: toxicity, cell-based; settings: read-out: Ratio IC50
Trypanosoma cruzi [11] = experiment: Antitrypanosomal activity against Trypanosoma cruzi Sylvio X-10 intracellular amastigotes transfected in African green monkey Vero cells assessed as inhibition of intracellular amastigotes viability measured after 72 hrs by giemsa-staining based analysis; type: functional, organism-based; settings: Sylvio X-10, Vero
Trypanosoma cruzi [12] = experiment: Antitrypanosomal activity against Trypanosoma cruzi Tulahuen CL2 intracellular amastigotes transfected in human MRC5 cells assessed as inhibition of intracellular amastigotes viability using […] substrate measured after 7 days by chlorophenol red […] staining based analysis; type: functional, organism-based; settings: Tulahuen CL2, MRC5, 168 h
Trypanosoma cruzi [13] = experiment: Antitrypanosomal activity against Trypanosoma cruzi Dm28c […] transfected in African green monkey Vero cells assessed as inhibition of […] viability measured after 24 hrs by MTT assay; type: functional, organism-based
[14] = Selectivity index, ratio of IC50 for cytotoxicity against African green monkey Vero cells to IC50 for antitrypanosomal activity against Trypanosoma cruzi Dm28c […] transfected in African green monkey Vero cells; type: toxicity, cell-based; settings: read-out: Ratio IC50
Trypanosoma cruzi [15] = experiment: Antitrypanosomal activity against Trypanosoma cruzi Dm28c intracellular amastigotes transfected in African green monkey Vero cells assessed as inhibition of intracellular amastigotes viability measured after 24 hrs by MTT assay; type: functional, organism-based
[16] = Selectivity index, ratio of IC50 for cytotoxicity against African green monkey Vero cells to IC50 for antitrypanosomal activity against Trypanosoma cruzi Dm28c intracellular amastigotes transfected in African green monkey Vero cells; type: toxicity, cell-based; settings: read-out: Ratio IC50

SMILES: N/C(S)=N/N=C/c1ccc([N+](=O)[O-])cc1
IC50 (Trypanosoma cruzi [4]): 11800 nM | IC50 (Trypanosoma cruzi [5]): 1430 nM | selectivity ratio [6]: 26.2 | selectivity ratio [7]: 11.6

SMILES: C=CCn1c(C(=O)N2CCN(C/C=C/c3ccccc3)CC2)cs\c1=N/N=C/C=C/c1ccco1
selectivity ratio [10]: 433 | IC50 (Trypanosoma cruzi [11]): 700 nM

SMILES: CCOc1cccc2sc(N(Cc3cccnc3)C(=O)C3CCCCC3)nc12
IC50 (Trypanosoma cruzi [12]): 160 nM

SMILES: O=C(OCCCCCCCCCCCC[P+](c1ccccc1)(c1ccccc1)c1ccccc1)c1cc(O)c(O)c(O)c1
EC50 (Trypanosoma cruzi [3]): 1000 nM

Continued, in another order:

IC50 (Trypanosoma cruzi [2]): < 1000 nM
SMILES: COc1cccc(Nc2c(C#N)cnc3ccc(Cl)cc23)c1
inhibition at 10 µM (Trypanosoma cruzi [1]): 65%

EC50 (Trypanosoma cruzi [3]): 1000 nM
SMILES: O=C(OCCCCCCCCCC[P+](c1ccccc1)(c1ccccc1)c1ccccc1)c1cc(O)c(O)c(O)c1

IC50 (Trypanosoma cruzi [9]): 4900 nM
SMILES: O=C(CS/C(C(=O)c1ccc2ccccc2c1)=C1\C=C(c2ccc(O)cc2)SS1)c1ccc2ccccc2c1
selectivity ratio [8]: 12.8

IC50 (Trypanosoma cruzi [13]): 33000 nM | IC50 (Trypanosoma cruzi [15]): 2340 nM
SMILES: CC1(C(CC(=O)/C=C/c2ccccc2)c2ccccc2)N=C(c2ccccc2)OC1=O (configuration not stated)
selectivity ratio [14]: 6.74 | selectivity ratio [16]: 95
